Test results: patent US11472769B2, “SSAO inhibitors and use thereof” (Eccogene (Shanghai) Co., Ltd., priority 2019, dated 2022)

Experiments:
Type in all cases: biochemical
recombinant hMAO-B = recombinant hMAO-B (Homo sapiens (Human), UniProt P27338); test: MAO-B activity assay (MAO-Glo assay kit); settings: 4 μM substrate, 30 mins pre-incubation
Procedure: (§1) The biological activities of the compounds of the present application can be assessed with methods and assays known in the art. For example, the potency of the compounds of the present application can be evaluated with an SSAO Activity Assay. Briefly, compounds of the present application can be applied to recombinant hSSAO, hMAO-A, and hMAO-B isoforms and the amine oxidase activity of the enzymes are measured after the addition and subsequent oxidation of the luminogenic substrate (e.g., with the MAO-Glo assay kit from Promega). The IC50 can be calculated, for example, by fitting the dose response curve using a 4-parameter non-linear regression routine.
(§2) Amine oxidase activity of recombinant hSSAO, hMAO-A, and hMAO-B isoforms are measured using the MAO-Glo assay kit (Promega, V1402). Ten nL test compounds (with DMSO as vehicle, 0.1% v/v for hSSAO, hMAO-A and hMAO-B) were added into assay plates by Echo, and pre-incubated with 5 μL of enzyme for 30 mins at room temperature before the addition of 5 μL of luminogenic substrate. The substrate concentration is 40 μM for human recombinant SSAO, 40 μM for human recombinant MAO-A, and 4 μM for human recombinant MAO-B. The hSSAO and hMAO-A assays were conducted in the MAO-A reaction buffer in the kit, and the MAO-B assay was conducted in the MAO-B reaction buffer. Oxidation of the substrate was conducted for 1 hr, before the addition of detecting reagent according the manufacture's protocol. The IC50 value of the tested compounds was calculated by fitting the dose response curve using a 4-parameter non-linear regression routine.

recombinant hMAO-A = recombinant hMAO-A (Homo sapiens (Human), UniProt P21397); test: MAO-A activity assay (MAO-Glo assay kit); settings: 40 μM substrate, 30 mins pre-incubation
Chain of recombinant hMAO-A (P21397 whole entry): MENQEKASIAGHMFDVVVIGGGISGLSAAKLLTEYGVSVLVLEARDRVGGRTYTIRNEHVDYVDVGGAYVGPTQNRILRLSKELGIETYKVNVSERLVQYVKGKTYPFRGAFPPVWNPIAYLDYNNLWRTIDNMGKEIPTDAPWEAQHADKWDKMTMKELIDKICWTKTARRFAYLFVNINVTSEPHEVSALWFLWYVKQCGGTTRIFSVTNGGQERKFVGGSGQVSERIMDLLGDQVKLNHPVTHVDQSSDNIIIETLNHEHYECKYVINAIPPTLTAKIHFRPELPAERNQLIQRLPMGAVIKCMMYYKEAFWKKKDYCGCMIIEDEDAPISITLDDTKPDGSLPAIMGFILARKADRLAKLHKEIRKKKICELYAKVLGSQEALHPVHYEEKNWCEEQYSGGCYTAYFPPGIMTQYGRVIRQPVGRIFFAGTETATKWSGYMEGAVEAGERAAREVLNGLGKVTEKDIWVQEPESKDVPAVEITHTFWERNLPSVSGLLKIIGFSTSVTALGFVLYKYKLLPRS
Procedure: as §1, §2

recombinant hSSAO = recombinant hSSAO (Homo sapiens (Human), UniProt Q16853); test: SSAO Activity Assay (MAO-Glo assay kit); settings: 40 μM substrate, 30 mins pre-incubation
Chain of recombinant hSSAO (Q16853 whole entry): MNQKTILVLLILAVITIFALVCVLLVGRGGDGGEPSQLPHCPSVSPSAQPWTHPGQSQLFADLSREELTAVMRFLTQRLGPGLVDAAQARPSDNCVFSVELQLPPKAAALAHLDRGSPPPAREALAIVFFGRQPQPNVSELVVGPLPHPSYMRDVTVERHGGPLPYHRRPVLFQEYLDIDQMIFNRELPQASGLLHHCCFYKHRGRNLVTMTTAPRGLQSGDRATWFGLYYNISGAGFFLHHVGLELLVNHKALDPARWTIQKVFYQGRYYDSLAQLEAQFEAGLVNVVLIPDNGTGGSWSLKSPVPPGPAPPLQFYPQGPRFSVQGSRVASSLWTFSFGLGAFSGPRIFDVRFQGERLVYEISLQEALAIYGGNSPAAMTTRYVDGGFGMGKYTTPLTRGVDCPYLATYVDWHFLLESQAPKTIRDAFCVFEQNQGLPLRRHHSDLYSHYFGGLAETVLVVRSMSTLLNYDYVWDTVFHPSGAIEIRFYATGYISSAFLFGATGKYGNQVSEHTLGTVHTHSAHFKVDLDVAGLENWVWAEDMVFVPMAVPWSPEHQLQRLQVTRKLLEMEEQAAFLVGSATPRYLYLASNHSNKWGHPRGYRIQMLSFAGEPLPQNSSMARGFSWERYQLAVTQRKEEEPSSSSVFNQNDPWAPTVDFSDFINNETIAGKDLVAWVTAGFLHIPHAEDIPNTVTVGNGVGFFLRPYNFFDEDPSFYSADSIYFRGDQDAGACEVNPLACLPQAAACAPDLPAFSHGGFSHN
Outline: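 Substrate was 4 μM in MAO-B buffer for hMAO-B and 40 μM in MAO-A buffer for hSSAO and hMAO-A. Each enzyme first saw compound (0.1% DMSO vehicle) for 30 min at room temperature.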

Chain of recombinant hMAO-B (P27338 whole entry, canonical isoform): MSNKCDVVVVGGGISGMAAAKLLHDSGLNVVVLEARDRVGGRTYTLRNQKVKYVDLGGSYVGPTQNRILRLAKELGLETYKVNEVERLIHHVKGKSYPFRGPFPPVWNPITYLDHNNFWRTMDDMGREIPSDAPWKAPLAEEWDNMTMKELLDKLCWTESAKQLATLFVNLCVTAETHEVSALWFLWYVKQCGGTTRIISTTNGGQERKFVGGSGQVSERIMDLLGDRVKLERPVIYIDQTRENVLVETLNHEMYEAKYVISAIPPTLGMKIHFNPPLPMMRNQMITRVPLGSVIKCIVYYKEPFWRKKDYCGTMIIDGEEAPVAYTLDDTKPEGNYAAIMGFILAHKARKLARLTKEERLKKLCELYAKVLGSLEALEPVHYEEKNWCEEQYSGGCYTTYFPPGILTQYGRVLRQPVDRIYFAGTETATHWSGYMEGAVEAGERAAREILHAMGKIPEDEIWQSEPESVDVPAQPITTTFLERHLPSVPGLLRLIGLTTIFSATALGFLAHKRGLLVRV

| SMILES | IC50 (recombinant hMAO-B) [µM] | IC50 (recombinant hMAO-A) [µM] | IC50 (recombinant hSSAO) [µM] |
| --- | --- | --- | --- |
| NC/C(=C\F)COc1ccc(S(=O)(=O)CC23CCC(NC(=O)C4CCC4)(CC2)CC3)cc1 [Compound 92, (E)-N-(4-(((4-((2-(aminomethyl)-3-fluoroallyl)oxy)phenyl)sulfonyl)methyl)bicyclo[2.2.2]octan-1-yl)cyclobutanecarboxamide] | 10 to 30 | > 30 | < 0.02 |
| NC/C(=C\F)COc1ccc(S(=O)(=O)CN2C(=O)C3(CC3)c3ccccc32)cc1 [Compound 120, (E)-1′-(((4-((2-(aminomethyl)-3-fluoroallyl)oxy)phenyl)sulfonyl)methyl)spiro[cyclopropane-1,3′-indolin]-2′one] | > 30 | > 30 | 0.02 to 0.1 |
| CC(C)(C)C(=O)NC12CC(CS(=O)(=O)c3ccc(OC/C(=C/F)CN)cc3)(C1)C2 [Compound 77, (E)-N-(3-(((4-((2-(aminomethyl)-3-fluoroallyl)oxy)phenyl)sulfonyl)methyl)bicyclo[1.1.1]pentan-1-yl)pivalamide] | > 30 | > 30 | < 0.02 |
| CC(C)OCCNC(=O)C12CCC(CS(=O)(=O)c3ccc(OC/C(=C/F)CN)cc3)(CC1)CC2 [Compound 68, (E)-4-(((4-((2-(aminomethyl)-3-fluoroallyl)oxy)phenyl)sulfonyl)methyl)-N-(2-isopropoxyethyl)bicyclo[2.2.2] octane-1-carboxamide] | > 30 | > 30 | < 0.02 |
| CC1(CS(=O)(=O)c2ccc(OC/C(=C/F)CN)cc2)CCN(C(=O)C2(C)CCC2)CC1 [Compound 56, (E)-(4-(((4-((2-(aminomethyl)-3-fluoroallyl)oxy)phenyl)sulfonyl)methyl)-4-methylpiperidin-1-yl)(1-methylcyclobutyl)methanone] | 10 to 30 | > 30 | 0.02 to 0.1 |
| CS(=O)(=O)N1CCC(CS(=O)(=O)c2ccc(OC/C(=C/F)CN)cc2)CC1 [Compound 38, (E)-3-fluoro-2-((4-(((1-(methylsulfonyl)piperidin-4-yl)methyl)sulfonyl)phenoxy)methyl) prop-2-en-1-amine] | < 10 | < 10 | < 0.02 |
| CC(C)NC(=O)C1CCC(CS(=O)(=O)c2ccc(OC/C(=C/F)CN)cc2)CC1 (stereo not drawn) [Compound 144, (E)-4-(((4-((2-(aminomethyl)-3-fluoroallyl)oxy)phenyl)sulfonyl)methyl)-N-isopropylcyclohexane-1-carboxamide] | < 10 | > 30 | 0.02 to 0.1 |
| CCN(CC)C(=O)C12CCC(CS(=O)(=O)c3ccc(OC/C(=C/F)CN)cc3)(CC1)CC2 [Compound 74, (E)-4-(((4-((2-(aminomethyl)-3-fluoroallyl)oxy)phenyl)sulfonyl)methyl)-N,N-diethylbicyclo[2.2.2] octane-1-carboxamide] | > 30 | > 30 | 0.02 to 0.1 |
| NC/C(=C\F)COc1ccc(S(=O)(=O)CC23CCC(NS(=O)(=O)C4CC4)(CC2)CC3)cc1 [Compound 81, (E)-N-(4-(((4-((2-(aminomethyl)-3-fluoroallyl)oxy)phenyl)sulfonyl)methyl)bicyclo[2.2.2]octan-1-yl)cyclopropanesulfonamide] | > 30 | > 30 | < 0.02 |
| NC/C(=C\F)COc1ccc(S(=O)(=O)CC23CCC(NC(=O)C4(F)CC4)(CC2)CC3)cc1 [Compound 86, (E)-N-(4-(((4-((2-(aminomethyl)-3-fluoroallyl)oxy)phenyl)sulfonyl)methyl)bicyclo[2.2.2]octan-1-yl)-1-fluorocyclopropane-1-carboxamide] | < 10 | > 30 | < 0.02 |
| NC/C(=C\F)COc1ccc(S(=O)(=O)CC23CCC(C(=O)NCC4CC4)(CC2)CC3)cc1 [Compound 66, (E)-4-(((4-((2-(aminomethyl)-3-fluoroallyl)oxy)phenyl)sulfonyl)methyl)-N-(cyclopropylmethyl)bicyclo [2.2.2]octane-1-carboxamide] | 10 to 30 | > 30 | < 0.02 |
| NC/C(=C\F)COc1ccc(S(=O)(=O)CC23CCC(NC(=O)C4CC4(F)F)(CC2)CC3)cc1 (stereo not drawn) [Compound 84, (E)-N-(4-(((4-((2-(aminomethyl)-3-fluoroallyl)oxy)phenyl)sulfonyl)methyl)bicyclo[2.2.2]octan-1-yl)-2,2-difluorocyclopropane-1-carboxamide] | 10 to 30 | > 30 | < 0.02 |
| NC/C(=C\F)COc1ccc(S(=O)(=O)CC23CCC(C(=O)N4CCC4)(CC2)CC3)cc1 [Compound 71] | 10 to 30 | > 30 | < 0.02 |

Continued, values first:

| IC50 (recombinant hMAO-B) [µM] | IC50 (recombinant hMAO-A) [µM] | IC50 (recombinant hSSAO) [µM] | SMILES |
| --- | --- | --- | --- |
| > 30 | > 30 | 0.1 to 0.5 | NC/C(=C\F)COc1ccc(S(=O)(=O)CN2CCC3(CCCC3)C2=O)c(F)c1 [Compound 128, (E)-2-(((4-((2-(aminomethyl)-3-fluoroallyl)oxy)-2-fluorophenyl)sulfonyl)methyl)-2-azaspiro[4.4]nonan-1-one] |
| > 30 | > 30 | 0.02 to 0.1 | NC/C(=C\F)COc1ccc(S(=O)(=O)CC2CCN(C(=O)CC(F)(F)F)CC2)c(F)c1 [Compound 59, (E)-1-(4-(((4-((2-(aminomethyl)-3-fluoroallyl)oxy)-2-fluorophenyl)sulfonyl)methyl)piperidin-1-yl)-3,3,3-trifluoropropan-1-one] |
| > 30 | > 30 | 0.02 to 0.1 | NC/C(=C\F)COc1ccc(S(=O)(=O)CN2CCOCC2=O)cc1 [Compound 130, (E)-4-(((4-((2-(aminomethyl)-3-fluoroallyl)oxy)phenyl)sulfonyl)methyl)morpholin-3-one] |
| > 30 | > 30 | 0.02 to 0.1 | CC(CN1CCOCC1)CS(=O)(=O)c1ccc(OC/C(=C/F)CN)cc1F (stereo not drawn) [Compound 114, (E)-3-fluoro-2-((3-fluoro-4-((2-methyl-3-morpholinopropyl)sulfonyl)phenoxy)methyl)prop-2-en-1-amine] |
| > 30 | > 30 | 0.02 to 0.1 | NC/C(=C\F)COc1ccc(S(=O)(=O)CN2CCOCC2=O)c(F)c1 [Compound 131, (E)-4-(((4-((2-(aminomethyl)-3-fluoroallyl)oxy)-2-fluorophenyl)sulfonyl)methyl) morpholin-3-one] |
| > 30 | 10 to 30 | 0.02 to 0.1 | NC/C(=C\F)COc1ccc(S(=O)(=O)CN2C(=O)CCc3ccccc32)cc1 [Compound 119, (E)-1-(((4-((2-(aminomethyl)-3-fluoroallyl)oxy)phenyl)sulfonyl)methyl)-3,4-dihydroquinolin-2(1H)-one] |
| 10 to 30 | > 30 | 0.02 to 0.1 | CC(CN1C(=O)CCC1(C)C)CS(=O)(=O)c1ccc(OC/C(=C/F)CN)cc1 (stereo not drawn) [Compound 111, (E)-1-(3-((4-((2-(aminomethyl)-3-fluoroallyl)oxy)phenyl)sulfonyl)-2-methylpropyl)-5,5-dimethylpyrrolidin-2-one] |
| < 10 | > 30 | 0.02 to 0.1 | CC1(C)CCN(CS(=O)(=O)c2ccc(OC/C(=C/F)CN)cc2)C1=O [Compound 125, (E)-1-(((4-((2-(aminomethyl)-3-fluoroallyl)oxy)phenyl)sulfonyl)methyl)-3,3-dimethylpyrrolidin-2-one] |
| > 30 | > 30 | 0.02 to 0.1 | CC1(C)CCC(=O)N1CS(=O)(=O)c1ccc(OC/C(=C/F)CN)cc1 [Compound 123, (E)-1-(((4-((2-(aminomethyl)-3-fluoroallyl)oxy)phenyl)sulfonyl)methyl)-5,5-dimethylpyrrolidin-2-one] |
| 10 to 30 | > 30 | 0.1 to 0.5 | CC1(C)CC(=O)N(CS(=O)(=O)c2ccc(OC/C(=C/F)CN)cc2)C1 [Compound 126, (E)-1-(((4-((2-(aminomethyl)-3-fluoroallyl)oxy)phenyl)sulfonyl)methyl)-4,4-dimethylpyrrolidin-2-one] |
| > 30 | > 30 | 0.1 to 0.5 | NC/C(=C\F)COc1ccc(S(=O)(=O)CC2CCN(C(=O)C3CCCC3)CC2)c(F)c1 [Compound 58] |
| < 10 | < 10 | 0.02 to 0.1 | NC/C(=C\F)COc1ccc(S(=O)(=O)CN2Cc3ccccc3C2=O)cc1 [Compound 118, (E)-2-(((4-((2-(aminomethyl)-3-fluoroallyl)oxy)phenyl)sulfonyl)methyl)isoindolin-1-one] |
| 10 to 30 | 10 to 30 | 0.02 to 0.1 | N#CC1(CS(=O)(=O)c2ccc(OC/C(=C/F)CN)cc2F)CCOCC1 [compound 13, (E)-4-(((4-((2-(aminomethyl)-3-fluoroallyl)oxy)-2-fluorophenyl)sulfonyl)methyl) tetrahydro-2H-pyran-4-carbonitrile] |
